Results from PubChem BioAssay AID330 (DTP/NCI, 2004).
Inconclusive results and toxic doses are left out. The calls were made as follows: active = survival T/C of 150% or more; inactive = T/C below 125% in these data.

System: P388 leukemia ip, CD2F1 mice, survival T/C
Assay: NCI In Vivo Anticancer Drug Screen. Data for tumor model P388 Leukemia (intraperitoneal) in CD2F1 (CDF1) mice
Details: endpoint: median survival time, higher = longer survival
Method in brief: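 Mice carrying the transplanted tumor received test compound or vehicle. Survival was recorded in each group, and the value is the treated-group measurement divided by that of the vehicle-treated control group.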

[1] = dose: 50.0 mg/kg/injection, schedule: Q01DX005 (ip), vehicle: Klucel (hydroxypropylcellulose) (HPC)
[2] = dose: 50.0 mg/kg/injection, schedule: Q01DX005 (ip), vehicle: saline with Tween-80
[3] = dose: 100.0 mg/kg/injection, schedule: Q01DX005 (ip), vehicle: Klucel (hydroxypropylcellulose) (HPC)
[4] = dose: 100.0 mg/kg/injection, schedule: Q01DX005 (ip), vehicle: saline with Tween-80
[5] = dose: 200.0 mg/kg/injection, schedule: Q01DX005 (ip), vehicle: Klucel (hydroxypropylcellulose) (HPC)
[6] = dose: 200.0 mg/kg/injection, schedule: Q01DX005 (ip), vehicle: saline with Tween-80
[7] = dose: 50.0 mg/kg/injection, schedule: Q01DX005 (ip), vehicle: saline
[8] = dose: 100.0 mg/kg/injection, schedule: Q01DX005 (ip), vehicle: saline
[9] = dose: 50.0 mg/kg/injection, schedule: Q01DX009 (ip), vehicle: saline with Tween-80
[10] = dose: 60.0 mg/kg/injection, schedule: Q01DX005 (ip), vehicle: Klucel (hydroxypropylcellulose) (HPC)
[11] = dose: 120.0 mg/kg/injection, schedule: Q01DX005 (ip), vehicle: Klucel (hydroxypropylcellulose) (HPC)
[12] = dose: 25.0 mg/kg/injection, schedule: Q01DX009 (ip), vehicle: saline

Measured: T/C

Cc1cc(Cl)ccc1OCC1OC(=O)C(C)(C)O1 (stereo not given)
inactive: dose: 50.0 mg/kg/injection, schedule: Q01DX009 (ip), vehicle: Klucel (hydroxypropylcellulose) (HPC) 100 % of control | dose: 100.0 mg/kg/injection, schedule: Q01DX009 (ip), vehicle: Klucel (hydroxypropylcellulose) (HPC) 100 % of control | dose: 200.0 mg/kg/injection, schedule: Q01DX009 (ip), vehicle: Klucel (hydroxypropylcellulose) (HPC) 101 % of control

c1ccc(CCN2COc3c(ccc4cccnc34)C2)cc1
inactive: dose: 25.0 mg/kg/injection, schedule: Q04DX003 (ip), vehicle: saline with Tween-80 110 % of control | dose: 50.0 mg/kg/injection, schedule: Q04DX003 (ip), vehicle: saline with Tween-80 110 % of control | dose: 100.0 mg/kg/injection, schedule: Q04DX003 (ip), vehicle: saline with Tween-80 100 % of control

CC(OCc1ccccc1)C(NC(=O)OC(C)(C)C)C(=O)O (stereo not given)
inactive: [1] 113 % of control | [2] 103 % of control | [3] 94 % of control | [4] 100 % of control | [5] 96 % of control | [6] 98 % of control

CCCCCC(CN(C)C)C(=O)/C=C/c1ccc(OC)cc1 (stereo not given)
inactive: [7] 101 % of control | [8] 104 % of control | dose: 200.0 mg/kg/injection, schedule: Q01DX005 (ip), vehicle: saline 96 % of control

COCC1(C)CC2CCCCC2CC1(C)O (stereo not given)
inactive: [2] 93 % of control | [4] 95 % of control | [6] 86 % of control

O=Ic1ccccc1
inactive: dose: 3.12 mg/kg/injection, schedule: Q01DX009 (ip), vehicle: saline with Tween-80 104 % of control | dose: 6.25 mg/kg/injection, schedule: Q01DX009 (ip), vehicle: saline with Tween-80 108 % of control | dose: 12.5 mg/kg/injection, schedule: Q01DX009 (ip), vehicle: saline with Tween-80 114 % of control | dose: 25.0 mg/kg/injection, schedule: Q01DX009 (ip), vehicle: saline with Tween-80 112 % of control | [9] 99 % of control

COc1cc(C(=O)NCC(=O)NN=C(C)C)cc(OC)c1OC
inactive: [1] 104 % of control | [3] 95 % of control | [5] 107 % of control

CC(=O)/C(=C\c1ccc(Cl)cc1)C(=O)CCN(C)C
inactive: [7] 112 % of control | [8] 118 % of control

Cc1c(CNc2ccc(C(=O)NC(CC(=O)O)C(=O)O)cc2)ccc2nc(N)nc(N)c12 (stereo not given)
active: dose: 12.5 mg/kg/injection, schedule: Q04DX003 (ip), vehicle: saline with Tween-80 159 % of control | dose: 16.5 mg/kg/injection, schedule: Q04DX003 (ip), vehicle: saline with Tween-80 200 % of control

CC1(CCC(=O)c2ccc3c(c2)OCO3)OCCO1
inactive: dose: 60.0 mg/kg/injection, schedule: Q01DX005 (ip), vehicle: saline with Tween-80 116 % of control | dose: 120.0 mg/kg/injection, schedule: Q01DX005 (ip), vehicle: saline with Tween-80 105 % of control | dose: 240.0 mg/kg/injection, schedule: Q01DX005 (ip), vehicle: saline with Tween-80 100 % of control

CC(=O)NNC(=O)c1ccc2ccccc2n1
inactive: dose: 50.0 mg/kg/injection, schedule: Q01DX009 (ip), vehicle: saline sonified 100 % of control | dose: 100.0 mg/kg/injection, schedule: Q01DX009 (ip), vehicle: saline sonified 104 % of control

CC(CN=C(CC(=O)C(F)(F)F)C(F)(F)F)N=C(CC(=O)C(F)(F)F)C(F)(F)F.[Ni] (stereo not given)
inactive: dose: 100.0 mg/kg/injection, schedule: Q04DX002 (ip), vehicle: saline with Tween-80 98 % of control | dose: 200.0 mg/kg/injection, schedule: Q04DX002 (ip), vehicle: saline with Tween-80 98 % of control | dose: 400.0 mg/kg/injection, schedule: Q04DX002 (ip), vehicle: saline with Tween-80 93 % of control

Cn1c(=NCCc2ccccc2)oc2ccc(Cl)cc21
inactive: [2] 103 % of control | [4] 100 % of control | [6] 100 % of control

Cc1nnc2nc(N)[nH]n2c1=O
inactive: dose: 25.0 mg/kg/injection, schedule: Q01DX005 (ip), vehicle: water 95 % of control | dose: 50.0 mg/kg/injection, schedule: Q01DX005 (ip), vehicle: water 98 % of control | dose: 100.0 mg/kg/injection, schedule: Q01DX005 (ip), vehicle: water 93 % of control

c1cnc(NC(Nc2ncccn2)C2CCCCC2)nc1
inactive: [10] 100 % of control | [11] 100 % of control | dose: 240.0 mg/kg/injection, schedule: Q01DX005 (ip), vehicle: Klucel (hydroxypropylcellulose) (HPC) 94 % of control

C[O+]=c1ccc2ccc(-c3ccccc3)sc-2c1
inactive: [10] 106 % of control | [11] 105 % of control

Cc1ccc(O)c(O)c1
inactive: [12] 101 % of control

COC(=O)[C@@H]1c2cc3c(c(O)c2[C@@H](OC)C[C@@]1(C)O)C(=O)c1c(O)cc2c(c1C3=O)OC1O[C@@]2(C)[C@H](O)[C@@H](N(C)C)[C@@H]1O
active: dose: 12.5 mg/kg/injection, schedule: Q01DX009 (ip), vehicle: other 171 % of control | dose: 12.5 mg/kg/injection, schedule: Q01DX009 (ip), vehicle: saline 156 % of control | dose: 25.0 mg/kg/injection, schedule: Q01DX009 (ip), vehicle: other 176 % of control | [12] 159 % of control | dose: 50.0 mg/kg/injection, schedule: Q01DX009 (ip), vehicle: other 171 % of control | dose: 50.0 mg/kg/injection, schedule: Q04DX003 (ip), vehicle: other 153 % of control | dose: 50.0 mg/kg/injection, schedule: Q04DX003 (ip), vehicle: saline 150 % of control | dose: 100.0 mg/kg/injection, schedule: Q04DX003 (ip), vehicle: other 158 % of control | dose: 100.0 mg/kg/injection, schedule: Q04DX003 (ip), vehicle: saline 150 % of control
inactive: dose: 6.25 mg/kg/injection, schedule: Q01DX010 (ip), vehicle: saline 110 % of control | dose: 12.5 mg/kg/injection, schedule: Q01DX010 (ip), vehicle: saline 110 % of control | dose: 25.0 mg/kg/injection, schedule: Q01DX010 (ip), vehicle: saline 120 % of control | dose: 50.0 mg/kg/injection, schedule: Q01DX009 (ip), vehicle: saline 98 % of control | dose: 50.0 mg/kg/injection, schedule: Q01DX010 (ip), vehicle: saline 110 % of control

Clc1cccc2nn3ccnc3n12
inactive: dose: 50.0 mg/kg/injection, schedule: Q01DX001 (ip), vehicle: Klucel (hydroxypropylcellulose) (HPC) 105 % of control | dose: 100.0 mg/kg/injection, schedule: Q01DX001 (ip), vehicle: Klucel (hydroxypropylcellulose) (HPC) 99 % of control | dose: 200.0 mg/kg/injection, schedule: Q01DX001 (ip), vehicle: Klucel (hydroxypropylcellulose) (HPC) 102 % of control

O=S1(=O)CC(N2CCCCC2)C=C(c2ccccc2)O1 (stereo not given)
inactive: [9] 103 % of control | dose: 100.0 mg/kg/injection, schedule: Q01DX009 (ip), vehicle: saline with Tween-80 98 % of control | dose: 200.0 mg/kg/injection, schedule: Q01DX009 (ip), vehicle: saline with Tween-80 95 % of control
